In patent US11267823B2, “Substituted 1,2,3,3a,4,5,7,9,13,13a-decahydropyrido[1′,2′:4,5]pyrazino[1,2-a]pyrrolo[1,2-c]pyrimidines having HIV integrase inhibitory activity” (Shionogi & Co., Ltd., priority 2005, dated 2022):

How the values were obtained:
HIV integrase = HIV integrase (Human immunodeficiency virus type 1 group M subtype B (isolate HXB2) (HIV-1), UniProt P04585); test: HIV integrase inhibitory activity assay (immunoplate strand transfer, OD405); assay type: biochemical; conditions: for IC50: read-out: Integrase inhibitory activity (IC50, ng/ml) (converted)
Description: The HIV integrase inhibitory activity was investigated based on the following assay method.
(1) Preparation of DNA Solution
By the same method as that described in Experimental Example 1 of WO 2004/024693, a substrate DNA solution (2 pmol/μl) and a target DNA solution (5 pmol/μl) were prepared. […] Each sequence of a substrate DNA and a target DNA is as described in the same Experimental Example.
(2) Measurement of Inhibition Rate (IC50 Value)
Streptavidin (manufactured by Vector Laboratories) was dissolved in a 0.1M carbonate buffer solution (composition: […] Na2CO3, 10 mM NaHCO3) to a concentration of 40 μg/ml, Each 50 μl of this solution was added to a well of an immunoplate (manufactured by NUNC), this is allowed to stand at 4° C. overnight to adsorb. Then, each well was washed with a phosphate buffer (composition: 13.7 mM NaCl, 0.27 mM KCl, 0.43 mM Na2HPO4, 0.14 mM KH2PO4) two times, and 300 μl of a phosphate buffer containing 1% skim milk to block it for 30 minutes. Further, each well was washed with a phosphate buffer two times, 50 μl of a substrate DNA solution (2 pmol/μl) was added to adsorb at room temperature for 30 minutes while shaking, and this was washed with a phosphate buffer two times and, then, distilled water once.
Then, to each well prepared as described above were added 12 μl of a buffer (composition: 150 mM MOPS (pH7.2), 75 mM MnCl2, 50 mM 2-mercaptoethanol, 25% glycerol, 500 μg/ml bovine serum albumin-fraction V), and 51 μl of a reaction solution prepared from 39 μl of distilled water. Then, 9 μl of an integrase solution (30 pmol) was added, and the mixture was mixed well. To a well as a negative control (NC) was added 9 μl of a diluting solution (composition: 20 mM MOPS (pH7.2), 400 mM potassium glutamate, 1 mM EDTA, 0.1% NP-40, 20% glycerol, 1 mM DTT, 4 M urea), and this was mixed well using a plate mixer. […]
C abs.: absorbance of well of compound
NC abs.: absorbance of NC
PC abs.: absorbance of PC

[1] = tested on: VSV-g pseudotyped HIV vector that expresses luciferase (PHIV); test: microbe, parasite or virus in culture; assay type: cell-based; conditions: Human immunodeficiency virus 1, HEK-293T, 48 h, read-out: PHIV IC50

SMILES	IC50 [1] [nM]	also measured
O=C(NCc1ccc(F)cc1)c1cn2c(c(O)c1=O)C(=O)N1CCOC1C2 (stereo not shown) [Example C-2, 5-Hydroxy-4,6-dioxo-2,3,4,6,9,9a-hexahydro-1-oxa-8a,8a-diaza-cyclopenta[b]naphthalene-7 carboxylic acid 4-fluorobenzylamide]	–	Integrase inhibitory activity (IC50, ng/ml) (HIV integrase): 3.3 ng/mL
CC(C)CN1CCCN2C(=O)c3c(O)c(=O)c(C(=O)NCc4ccc(F)cc4)cn3CC12 (stereo not shown) [Example F-2, 5-Hydroxy-1-isobutyl-6,10-dioxo-1,2,3,4,6,9,9a,10-octahydro-1,4a,8a-triazaanthracene-7-carboxylic acid 4-fluorobenzylamide]	–	IC50 (HIV integrase): 8.59 nM
CC(=O)N1CCCN2C(=O)c3c(O)c(=O)c(C(=O)NCc4ccc(F)cc4)cn3CC12 (stereo not shown) [Example H-2, 1-Acetyl-5-hydroxy-6,10-dioxo-1,2,3,4,6,9,9a,10-octahydro-1,4a,8a-triaza-anthracene-7-carboxylic acid 4-fluoro-benzylamide]	–	IC50 (HIV integrase): 7.47 nM
COCCN1CC[C@H](C)N2C(=O)c3c(O)c(=O)c(C(=O)NCc4ccc(F)cc4F)cn3C[C@@H]12 [Example Z-48, (4S,12aS)—N-[(2,4-Difluorophenyl)methyl]-7-hydroxy-4-methyl-1-[2-(methyloxy)ethyl]-6,8-dioxo-1,2,3,4,6,8,12,12a-octahydropyrido[1′,2′:4,5]pyrazino[1,2-a]pyrimidine-9-carboxamide]	< 10	–
CC[C@@H]1CO[C@H]2Cn3cc(C(=O)NCc4ccc(F)cc4F)c(=O)c(O)c3C(=O)N12 [Example Z-50, (3R,11aS)—N-[(2,4-Difluorophenyl)methyl]-3-ethyl-6-hydroxy-5,7-dioxo-2,3,5,7,11,11a-hexahydro[1,3]oxazolo[3,2-a]pyrido[1,2-d]pyrazine-8-carboxamide]	< 10	–
C[C@H]1CCN(C2CCC2)[C@@H]2Cn3cc(C(=O)NCc4ccc(F)cc4F)c(=O)c(O)c3C(=O)N12 [Example Z-59, (4S,12aS)-1-Cyclobutyl-N-[(2,4-difluorophenyl)methyl]-7-hydroxy-4-methyl-6,8-dioxo-1,2,3,4,6,8,12,12a-octahydropyrido[1′,2′:4,5]pyrazino[1,2-a]pyrimidine-9-carboxamide]	< 10	–
C[C@H]1CCN(C2CCSCC2)[C@@H]2Cn3cc(C(=O)NCc4ccc(F)cc4F)c(=O)c(O)c3C(=O)N12 [Example Z-60, (4S,12aS)—N-[(2,4-Difluorophenyl)methyl]-7-hydroxy-4-methyl-6,8-dioxo-1-(tetrahydro-2H-thiopyran-4-yl)-1,2,3,4,6,8,12,12a-octahydropyrido[1′,2′:4,5]pyrazino[1,2-a]pyrimidine-9-carboxamide]	< 10	–
